Holding throughout (type): in vivo
The test system of assay [1] is common groundsel (Senecio vulgaris). The assay is described as follows: Test E pre-/postemergence/post directed. Also on record: key: 0 is no injury; 100 is complete control. In short, it runs like this: (§1)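 Injury was scored visually on a 0 to 100 scale (100 = complete control) 13 to 21 days after treatment of greenhouse-grown plants. Test chemicals, in a surfactant-containing non-phytotoxic solvent, were sprayed onto soil within a day of planting, onto plants at the two to four leaf stage, or directed at the base of the plants.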

In assay [2] the test system is goosegrass (Eleusine indica). The assay is described as follows: Test E pre-/postemergence/post directed. Also on record: key: 0 is no effect; 100 is complete control. The method, boiled down:
as §1

For assay [3], the system named is surinam grass (Brachiaria decumbens). The assay is described as follows: Test E pre-/postemergence/post directed. To be noted: PREEMERGENCE
More on the design: key: 0 is no effect; 100 is complete control. The method, boiled down: as §1

Assay [4] relates to alexandergrass (Brachiaria plantaginea). The assay is described as follows: Test E pre-/postemergence/post directed. More on the design: key: 0 is no injury; 100 is complete control. To be noted: PREEMERGENCE
In short, it runs like this:
as §1

Assay [5] relates to jointed goatgrass (Aegilops cylindrica). The assay is described as follows: Test D. To be noted: PREEMERGENCE
Assay [6] relates to kochia (Kochia scoparia). The assay can be described thus: Test D. More on the design: key: 0 is no effect; 100 is complete control. The following applies: PREEMERGENCE
For assay [7], the system named is littleseed canarygrass (Phalaris minor). The assay is described as follows: Test D. To be noted: PREEMERGENCE
For assay [8], the system named is redroot pigweed (Amaranthus retroflexus). The assay can be described thus: Test D. The following applies: PREEMERGENCE
Assay [9] relates to spring barley (Hordeum vulgare). The assay can be described thus: Test D. To be noted: PREEMERGENCE
The test system of assay [10] is winter wheat (Triticum aestivum). The assay is described as follows: Test D. To be noted: PREEMERGENCE
In assay [11] the test system is galium 2 (Galium aparine). The assay is described as follows: Test D. More on the design: key: 0 is no effect; 10 is complete control. To be noted: POSTEMERGENCE
Here is the method:
(§2) Compounds evaluated in this test were formulated in a non-phytotoxic solvent mixture which included a surfactant and applied to plants that were in the 1- to 4-leaf stage (postemergence application). A mixture of sandy loam soil and greenhouse potting mix in a 60:40 ratio was used for the postemergence test.
(§3) Plantings of these crops and weed species were adjusted to produce plants of appropriate size for the postemergence test. All plant species were grown using normal greenhouse practices. Crop and weed species include alfalfa (Medicago sativa), annual bluegrass (Poa annua), blackgrass (Alopecurus myosuroides), black nightshade (Solanum nigra), chickweed (Stellaria media), common poppy (Papaver rhoeas), deadnettle (Lamium amplexicaule), downy brome (Bromus tectorum), field violet (Viola arvensis), galium 2 (Galium aparine), green foxtail (Setaria viridis), Italian ryegrass (Lolium multiflorum), jointed goatgrass (Aegilops cylindrica), kochia (Kochia scoparia), lambsquarters (Chenopodium album), lentil (Lens culinaris), littleseed canarygrass (Phalaris minor), pea (Pisum sativum), potato (Solanum tuberosum), rape (Brassica napus), redroot pigweed (Amaranthus retroflexus), Russian thistle (Salsola kali), scentless chamomile (Matricaria inodora), sorghum (Sorghum vulgare), spring barley (Hordeum vulgare), sugar beet (Beta vulgaris), sunflower (Helianthus annuus), ivyleaf speedwell (Veronica hederaefolia), spring wheat (Triticum aestivum), winter wheat (Triticum aestivum), wild buckwheat (Polygonum convolvulus), wild mustard (Sinapis arvensis), wild oat (Avena fatua), windgrass (Apera spica-venti) and winter barley (Hordeum vulgare).
(§4) Treated plants and untreated controls were maintained in a greenhouse for approximately 21 to 28 days, after which all treated plants were compared to untreated controls and visually evaluated. Plant response ratings, summarized in Table D, are based upon a 0 to 100 scale where 0 is no effect and 100 is complete control. A dash response (−) means no test result.

Assay [12] deals with kochia (Kochia scoparia). The assay is described as follows: Test D. More on the design: key: 0 is no effect; 10 is complete control. The following applies: POSTEMERGENCE
As for the experimental part:
as §2, §3, §4

The subject of assay [13] is redroot pigweed (Amaranthus retroflexus). The assay can be described thus: Test D. More on the design: key: 0 is no effect; 10 is complete control. The following applies: POSTEMERGENCE
As for the experimental part: as §2, §3, §4

Assay [14] has as its system wild buckwheat (Polygonum convolvulus). The assay is described as follows: Test D. More on the design: key: 0 is no effect; 10 is complete control. To be noted: POSTEMERGENCE
Here is the method:
as §2, §3, §4

Assay [15] has as its system lambsquarters (Chenopodium album). The assay is described as follows: Test D. Also on record: key: 0 is no effect. The following applies: POSTEMERGENCE
Here is the method: as §2, §3, §4

Consider seven compounds from patent publication US6525001B1, “Substituted pyrimidine and pyridine herbicides” (Mid-American Commercialization Corporation, priority 1997, dated 2003).

Turning to `Cc1cnc(-c2ccc(C(F)(F)F)cc2)nc1Cc1cccc(OC(F)(F)F)c1` [Compound 15], in assay [1] (POSTEMERGENCE, Rate 125 g/ha), the “Plant response rating, Com. groundsel” value came to 0. Besides, the “Plant response rating, Goosegrass” value in assay [2] (POSTEMERGENCE, Rate 125 g/ha) is 20; in assay [2] (POSTEMERGENCE, Rate 250 g/ha), 30; in [2] (PREEMERGENCE, Rate 32 g/ha), 98; in assay [2] (PREEMERGENCE, Rate 64 g/ha) it was 98; in assay [2] (PREEMERGENCE, Rate 125 g/ha), 98; in assay [2] (PREEMERGENCE, Rate 250 g/ha), 100. Besides, the “Plant response rating, Surinam grass” value in [3] (Rate 125 g/ha) and in assay [3] (Rate 250 g/ha) was 100 in each case.

Take `COc1cnc(-c2ccc(C(F)(F)F)cc2)nc1Cc1cccc(C(F)(F)F)c1` [Compound 23]: the “Plant response rating, Alexandergrass” value in assay [4] (Rate 32 g/ha) and in [4] (Rate 64 g/ha) was 0 each time. Moreover, the “Plant response rating, Goosegrass” value in assay [2] (POSTEMERGENCE, Rate 250 g/ha) came to 75; in assay [2] (PREEMERGENCE, Rate 32 g/ha), 98; in assay [2] (PREEMERGENCE, Rate 64 g/ha), 98; in assay [2] (PREEMERGENCE, Rate 125 g/ha), 98; in [2] (PREEMERGENCE, Rate 250 g/ha), 100.

For the compound `Cc1cnc(-n2cnc(C(F)(F)F)c2)nc1Cc1cccc(C(F)(F)F)c1` [Compound 44], the “Plant response rating, Alexandergrass” value in assay [4] (Rate 32 g/ha) stood at 0. Moreover, the “Plant response rating, Goosegrass” value is 10 in assay [2] (POSTEMERGENCE, Rate 125 g/ha); 20 in assay [2] (POSTEMERGENCE, Rate 250 g/ha); 98 in assay [2] (PREEMERGENCE, Rate 32 g/ha); 98 in [2] (PREEMERGENCE, Rate 64 g/ha); 98 in [2] (PREEMERGENCE, Rate 125 g/ha); 100 in assay [2] (PREEMERGENCE, Rate 250 g/ha).

Consider `CCc1cnc(-n2ccc(C(F)(F)F)n2)nc1Cc1cccc(C(F)(F)F)c1` [Compound 46], for which the “Plant response rating, Alexandergrass” value in [4] (Rate 32 g/ha) and in [4] (Rate 64 g/ha) was 0 throughout. For the same compound, the “Plant response rating, Goosegrass” value was 85 in [2] (PREEMERGENCE, Rate 32 g/ha); 90 in [2] (PREEMERGENCE, Rate 64 g/ha); 98 in assay [2] (PREEMERGENCE, Rate 125 g/ha); 100 in assay [2] (PREEMERGENCE, Rate 250 g/ha). The “Plant response rating, Jointed goatgra” value in [5] (Rate 31 g/ha) came to 50; in assay [5] (Rate 62 g/ha), 60. Further, the “Plant response rating, Kochia” value in [6] (Rate 31 g/ha) and in [6] (Rate 62 g/ha) was 60 in each case. The “Plant response rating, LS canarygrass” value is recorded as 70 in [7] (Rate 31 g/ha) and 90 in assay [7] (Rate 62 g/ha). For the same compound, the “Plant response rating, Redroot pigweed” value in [8] (Rate 31 g/ha) and in [8] (Rate 62 g/ha) was 70 throughout. In addition, the results for the “Plant response rating, Spring Barley” value in assay [9] (Rate 31 g/ha) and in assay [9] (Rate 62 g/ha) were 30 and 5, respectively. Also, the “Plant response rating, Wheat (winter)” value in assay [10] (Rate 31 g/ha) is listed as 40; in [10] (Rate 62 g/ha), 2.

With `Cc1cnc(-n2cnc(C(F)(F)F)n2)nc1C(=O)c1cccc(C(F)(F)F)c1` [Compound 67], the “Plant response rating, Com. groundsel” value in assay [1] (PREEMERGENCE, Rate 32 g/ha) amounted to 0. In addition, the “Plant response rating, Goosegrass” value in assay [2] (PREEMERGENCE, Rate 32 g/ha) was determined as 80; in [2] (PREEMERGENCE, Rate 64 g/ha), 90; in assay [2] (PREEMERGENCE, Rate 125 g/ha), 100; in assay [2] (PREEMERGENCE, Rate 250 g/ha), 100. The “Plant response rating, Surinam grass” value in [3] (Rate 250 g/ha) is 100.

For `Cc1cnc(-c2ccc(C(F)(F)F)cc2)nc1Cc1cccc(C(F)(F)F)c1` [Example 1, 5-methyl-2-[4-(trifluoromethyl)phenyl]-4-[[3-(trifluoromethyl)phenyl]methyl]pyrimidine], the “Plant response rating, Galium” value in assay [11] (Rate 16 g/ha) is recorded as 0; in assay [11] (Rate 31 g/ha) it was 60; in [11] (Rate 62 g/ha), 70; in assay [11] (Rate 125 g/ha), 70. For the same compound, the “Plant response rating, Kochia” value in assay [12] (Rate 16 g/ha) stood at 0; in [12] (Rate 31 g/ha) it was 60; in assay [12] (Rate 62 g/ha), 80; in assay [12] (Rate 125 g/ha), 70; in assay [6] (Rate 31 g/ha) it was 40; in assay [6] (Rate 62 g/ha), 100. The figures for the “Plant response rating, Kochia” value in [6] (Rate 125 g/ha) and in assay [6] (Rate 250 g/ha) were 100 and 85, respectively. Further, the “Plant response rating, Redroot pigweed” value in [13] (Rate 16 g/ha) stood at 0; in assay [13] (Rate 31 g/ha) it was 70; in [13] (Rate 62 g/ha), 70; in [13] (Rate 125 g/ha), 50; in assay [8] (Rate 31 g/ha) it was 75; in assay [8] (Rate 62 g/ha) it was 70. In addition, the entries for the “Plant response rating, Redroot pigweed” value in assay [8] (Rate 125 g/ha) and in [8] (Rate 250 g/ha) were 75 and 70, respectively. Besides, the “Plant response rating, Wild buckwheat” value in [14] (Rate 16 g/ha) is reported as 0; in assay [14] (Rate 31 g/ha) it was 0; in [14] (Rate 62 g/ha), 0; in [14] (Rate 125 g/ha) it was 20. The “Plant response rating, Lambsquarters” value in [15] (Rate 16 g/ha) amounted to 0; in assay [15] (Rate 31 g/ha) it was 60; in [15] (Rate 62 g/ha), 60; in assay [15] (Rate 125 g/ha), 50. The “Plant response rating, Goosegrass” value in assay [2] (POSTEMERGENCE, Rate 250 g/ha) is 70; in assay [2] (PREEMERGENCE, Rate 32 g/ha) it was 100; in assay [2] (PREEMERGENCE, Rate 64 g/ha), 100; in [2] (PREEMERGENCE, Rate 125 g/ha), 100; in [2] (PREEMERGENCE, Rate 250 g/ha) it was 100. Besides, the “Plant response rating, Surinam grass” value in assay [3] (Rate 250 g/ha) worked out at 100. The “Plant response rating, Jointed goatgra” value is 10 in [5] (Rate 31 g/ha), 20 in assay [5] (Rate 62 g/ha), 70 in assay [5] (Rate 125 g/ha) and 50 in assay [5] (Rate 250 g/ha). Moreover, the “Plant response rating, LS canarygrass” value was 20 in assay [7] (Rate 31 g/ha), 60 in assay [7] (Rate 62 g/ha), 85 in assay [7] (Rate 125 g/ha) and 70 in [7] (Rate 250 g/ha). The “Plant response rating, Spring Barley” value is 10 in assay [9] (Rate 31 g/ha), 20 in [9] (Rate 62 g/ha), 20 in assay [9] (Rate 125 g/ha) and 40 in assay [9] (Rate 250 g/ha). The “Plant response rating, Wheat (winter)” value was 10 in assay [10] (Rate 31 g/ha), 10 in [10] (Rate 62 g/ha), 20 in assay [10] (Rate 125 g/ha) and 40 in assay [10] (Rate 250 g/ha).

For the compound `Cc1cnc(-n2ccc(C(F)(F)F)n2)nc1Cc1cccc(C(F)(F)F)c1` [Example 2, 5-methyl-4-[[3-(trifluoromethyl)phenyl]methyl]-2-[3-(trifluoromethyl)-1H-pyrazol-1-yl]pyrimidine], the “Plant response rating, Com. groundsel” value in [1] (POSTEMERGENCE, Rate 32 g/ha) is listed as 0. Also, the “Plant response rating, Goosegrass” value amounted to 60 in assay [2] (POSTEMERGENCE, Rate 32 g/ha); 75 in assay [2] (POSTEMERGENCE, Rate 64 g/ha); 90 in [2] (POSTEMERGENCE, Rate 250 g/ha); 95 in [2] (POSTEMERGENCE, Rate 500 g/ha); 95 in assay [2] (PREEMERGENCE, Rate 32 g/ha); 100 in assay [2] (PREEMERGENCE, Rate 64 g/ha). In addition, the “Plant response rating, Goosegrass” value in assay [2] (PREEMERGENCE, Rate 125 g/ha) was found to be 100; in [2] (PREEMERGENCE, Rate 250 g/ha), 100; in assay [2] (PREEMERGENCE, Rate 500 g/ha), 100. Also, the “Plant response rating, Surinam grass” value in assay [3] (Rate 125 g/ha), in assay [3] (Rate 250 g/ha) and in assay [3] (Rate 500 g/ha) was 100 throughout.
